Values quoted from earlier work as cited in patent US20220347065A1, “ANTIPERSPIRANT EMULSION” (Conopco, Inc., d/b/a UNILEVER, priority 2019, published 2022).

test system: Staphylococcus epidermidis; conditions: 80% or greater reduction in growth, 16 to 24 hours at 37° C.

MIC | Compound
greater than 1 mg·ml^−1 | CCO [ethanol]
ca. 25 μg·ml^−1 | CC(C)=CCCC(C)=CCCC(C)=CCO [farnesol, 3,7,11-trimethyldodeca-2,6,10-trienol]

Compound | MIC
Oc1cc(Cl)ccc1Oc1ccc(Cl)cc1Cl [triclosan, 2′,4,4′-trichloro,2-hydroxy-diphenyl ether] | 0.01 to 10 mg/L
